ChEMBL document CHEMBL4354834 (J Med Chem, 2020)

Legend:
[1] = Half life in cynomolgus monkey at 0.72 mg/kg, iv or 1.33 mg/kg, po; assay type: ADME, organism-based, Macaca fascicularis; conditions: in vivo
[2] = Half life in rat at 0.70 mg/kg, iv or 1.40 mg/kg, po; assay type: ADME, organism-based; conditions: in vivo
[3] = Protein binding in rat; assay type: ADME; conditions: plasma, read-out: PB (converted)
[4] = Clearance in dog at 0.40 mg/kg, iv or 0.57 mg/kg, po; assay type: ADME, organism-based, Canis lupus familiaris; conditions: in vivo, 0.4 mg/kg
[5] = Volume of distribution at steady state in rat at 0.70 mg/kg, iv or 1.40 mg/kg, po; assay type: ADME, organism-based; conditions: in vivo, 0.7 mg/kg, read-out: Vdss
[6] = Clearance in cynomolgus monkey at 0.72 mg/kg, iv or 1.33 mg/kg, po; assay type: ADME, organism-based, Macaca fascicularis; conditions: in vivo
[7] = Oral bioavailability in cynomolgus monkey at 1.33 mg/kg; assay type: ADME, organism-based, Macaca fascicularis; conditions: in vivo
[8] = Volume of distribution at steady state in dog at 0.40 mg/kg, iv or 0.57 mg/kg, po; assay type: ADME, organism-based, Canis lupus familiaris; conditions: in vivo, 0.4 mg/kg, read-out: Vdss
[9] = AUC in rat at 1.40 mg/kg, po; assay type: ADME, organism-based; conditions: in vivo, 1.4 mg/kg
[10] = Protein binding in cynomolgus monkey; assay type: ADME, Macaca fascicularis; conditions: read-out: PB (converted)
[11] = Half life in dog at 0.40 mg/kg, iv or 0.57 mg/kg, po; assay type: ADME, organism-based, Canis lupus familiaris; conditions: in vivo
[12] = AUC in dog at 0.57 mg/kg, po; assay type: ADME, organism-based, Canis lupus familiaris; conditions: in vivo
[13] = Oral bioavailability in dog at 0.57 mg/kg; assay type: ADME, organism-based, Canis lupus familiaris; conditions: in vivo
[14] = Oral bioavailability in rat at 1.40 mg/kg; assay type: ADME, organism-based; conditions: in vivo, 1.4 mg/kg
[15] = AUC in cynomolgus monkey at 1.33 mg/kg, po; assay type: ADME, organism-based, Macaca fascicularis; conditions: in vivo
[16] = Clearance in rat at 0.70 mg/kg, iv or 1.40 mg/kg, po; assay type: ADME, organism-based; conditions: in vivo, 0.7 mg/kg
[17] = Volume of distribution at steady state in cynomolgus monkey at 0.72 mg/kg, iv or 1.33 mg/kg, po; assay type: ADME, organism-based, Macaca fascicularis; conditions: in vivo, read-out: Vdss
[18] = Protein binding in dog; assay type: ADME, Canis lupus familiaris; conditions: read-out: PB (converted)
[19] = AUC in cynomolgus monkey at 1.52 mg/kg, po; assay type: ADME, organism-based, Macaca fascicularis; conditions: in vivo
[20] = Volume of distribution at steady state in rat at 0.55 mg/kg, iv or 1.10 mg/kg, po; assay type: ADME, organism-based; conditions: in vivo, read-out: Vdss
[21] = Volume of distribution at steady state in dog at 0.40 mg/kg, iv or 0.62 mg/kg, po; assay type: ADME, organism-based, Canis lupus familiaris; conditions: in vivo, 0.4 mg/kg, read-out: Vdss
[22] = AUC in dog at 0.62 mg/kg, po; assay type: ADME, organism-based, Canis lupus familiaris; conditions: in vivo
[23] = Half life in rat at 0.55 mg/kg, iv or 1.10 mg/kg, po; assay type: ADME, organism-based; conditions: in vivo
[24] = Clearance in dog at 0.40 mg/kg, iv or 0.62 mg/kg, po; assay type: ADME, organism-based, Canis lupus familiaris; conditions: in vivo, 0.4 mg/kg
[25] = AUC in rat at 1.10 mg/kg, po; assay type: ADME, organism-based; conditions: in vivo, 1.1 mg/kg
[26] = Oral bioavailability in cynomolgus monkey at 1.52 mg/kg; assay type: ADME, organism-based, Macaca fascicularis; conditions: in vivo
[27] = Oral bioavailability in dog at 0.62 mg/kg; assay type: ADME, organism-based, Canis lupus familiaris; conditions: in vivo
[28] = Half life in cynomolgus monkey at 0.71 mg/kg, iv or 1.52 mg/kg, po; assay type: ADME, organism-based, Macaca fascicularis; conditions: in vivo
[29] = Clearance in cynomolgus monkey at 0.71 mg/kg, iv or 1.52 mg/kg, po; assay type: ADME, organism-based, Macaca fascicularis; conditions: in vivo
[30] = Half life in dog at 0.40 mg/kg, iv or 0.62 mg/kg, po; assay type: ADME, organism-based, Canis lupus familiaris; conditions: in vivo
[31] = Clearance in rat at 0.55 mg/kg, iv or 1.10 mg/kg, po; assay type: ADME, organism-based; conditions: in vivo
[32] = Volume of distribution at steady state in cynomolgus monkey at 0.71 mg/kg, iv or 1.52 mg/kg, po; assay type: ADME, organism-based, Macaca fascicularis; conditions: in vivo, read-out: Vdss
[33] = Oral bioavailability in rat at 1.10 mg/kg; assay type: ADME, organism-based; conditions: in vivo, 1.1 mg/kg
[34] = Clearance in dog at 0.80 mg/kg, iv; assay type: ADME, organism-based, Canis lupus familiaris; conditions: in vivo, 0.8 mg/kg
[35] = Clearance in cynomolgus monkey at 0.80 mg/kg, iv or 1.58 mg/kg, po; assay type: ADME, organism-based, Macaca fascicularis; conditions: in vivo, 0.8 mg/kg
[36] = Volume of distribution at steady state in cynomolgus monkey at 0.80 mg/kg, iv or 1.58 mg/kg, po; assay type: ADME, organism-based, Macaca fascicularis; conditions: in vivo, 0.8 mg/kg, read-out: Vdss
[37] = AUC in cynomolgus monkey at 1.58 mg/kg, po; assay type: ADME, organism-based, Macaca fascicularis; conditions: in vivo
[38] = Oral bioavailability in cynomolgus monkey at 1.58 mg/kg; assay type: ADME, organism-based, Macaca fascicularis; conditions: in vivo
[39] = Volume of distribution at steady state in dog at 0.80 mg/kg, iv; assay type: ADME, organism-based, Canis lupus familiaris; conditions: in vivo, 0.8 mg/kg, read-out: Vdss
[40] = Half life in dog at 0.80 mg/kg, iv; assay type: ADME, organism-based, Canis lupus familiaris; conditions: in vivo, 0.8 mg/kg
[41] = Half life in cynomolgus monkey at 0.80 mg/kg, iv or 1.58 mg/kg, po; assay type: ADME, organism-based, Macaca fascicularis; conditions: in vivo

COC(=O)Nc1ccc2c(c1)NC(=O)[C@H](C)CCC[C@H](NC(=O)c1cnn(-c3cccc(Cl)c3F)c1C)c1cc-2ccn1.O=C(O)C(F)(F)F
half-life [1]: 3.3 h
half-life [2]: 1.2 to 1.8 h
fraction unbound [3]: 0.033
clearance [4]: 16.4 mL/min/kg
Vd [5]: 1.3 to 1.9 L/kg
clearance [6]: 20 mL/min/kg
bioavailability [7]: 4%
Vd [8]: 4 L/kg
AUC [9]: 0.069 to 0.475 µM·h
fraction unbound [10]: 0.036
half-life [11]: 2.9 h
AUC [12]: 0.266 µM·h
bioavailability [13]: 35%
bioavailability [14]: 6 to 18%
AUC [15]: 0.069 µM·h
clearance [16]: 13 to 28 mL/min/kg
Vd [17]: 3.6 L/kg
fraction unbound [18]: 0.05

COC(=O)Nc1ccc2c(c1)NC(=O)[C@H](C)CCC[C@H](NC(=O)c1nnn(-c3cccc(Cl)c3F)c1C)c1cc-2ccn1.O=C(O)C(F)(F)F
AUC [19]: 0.584 µM·h
Vd [20]: 2.1 to 3.5 L/kg
fraction unbound [3]: 0.052
Vd [21]: 2.4 L/kg
AUC [22]: 0.922 µM·h
half-life [23]: 2.2 to 4.2 h
clearance [24]: 5.4 mL/min/kg
fraction unbound [10]: 0.055
AUC [25]: 0.213 to 1.15 µM·h
bioavailability [26]: 15%
bioavailability [27]: 34%
half-life [28]: 4 h
clearance [29]: 9.9 mL/min/kg
half-life [30]: 4.8 h
fraction unbound [18]: 0.038
clearance [31]: 9 to 21 mL/min/kg
Vd [32]: 2.9 L/kg
bioavailability [33]: 13 to 42%

COC(=O)Nc1ccc2c(c1)NC(=O)[C@H](C)CCC[C@H](NC(=O)c1ncn(-c3cccc(Cl)c3F)c1C)c1cc-2ccn1.O=C(O)C(F)(F)F.O=C(O)C(F)(F)F
half-life [2]: 1 to 1.4 h
clearance [34]: 15.6 mL/min/kg
fraction unbound [3]: 0.026
Vd [5]: 0.5 to 2 L/kg
clearance [35]: 14.5 mL/min/kg
AUC [9]: 0.068 to 1.23 µM·h
fraction unbound [10]: 0.042
bioavailability [14]: 7 to 25%
Vd [36]: 3.2 L/kg
AUC [37]: 0.509 µM·h
clearance [16]: 6 to 29 mL/min/kg
bioavailability [38]: 19%
Vd [39]: 6 L/kg
half-life [40]: 5 h
fraction unbound [18]: 0.043
half-life [41]: 3.7 h
